Source: ChEMBL document CHEMBL1144748, “N-D-aldopentofuranosyl-N'-[p-(isoamyloxy)phenyl]-thiourea derivatives: potential anti-TB therapeutic agents” (2008)
Values after ≈ are worked out from the molar mass of the structure shown.

These compounds were tested on Mycobacterium tuberculosis (assay: Antimycobacterial activity against Mycobacterium tuberculosis H37Rv by microplate alamar blue assay).
Type: functional
`CC(C)CCOc1ccc(NC(=S)NC2O[C@H](CO)[C@@H](O)[C@H]2O)cc1` (stereo not given in full) gave an MIC of 3.12 µg/mL (≈ 8.44 µM).
Compound `CC(C)CCOc1ccc(NC(=S)NC2O[C@H](CO)[C@@H](O)[C@@H]2O)cc1` (stereo not given in full) has an MIC of 1.56 µg/mL (≈ 4.21 µM).
For `CC(C)CCOc1ccc(NC(=S)NC2O[C@H](CO)[C@H](O)[C@@H]2O)cc1` (stereo not given in full), the MIC was 50 µg/mL (≈ 135 µM).
`CC(C)CCOc1ccc(NC(=S)Nc2ccc(OCCC(C)C)cc2)cc1` [TIOCARLIDE] showed an MIC of 2.5 µg/mL (≈ 6.24 µM).
Work on `CC(C)CCOc1ccc(NC(=S)NC2O[C@H](CO)[C@H](O)[C@H]2O)cc1` (stereo not given in full) yielded an MIC of 6.25 µg/mL (≈ 16.9 µM).
